According to US20040161861A1, “Glycoconjugate sensors” (priority 2002, published 2004):

How the values were obtained:
Conditions in all cases: colorimetric ELISA, OD at 405 nm, FIG. 5
[1] = system: B. thuringiensis spores; type: binding, Bacillus thuringiensis
[2] = system: B. cereus spores; type: binding, Bacillus cereus
[3] = system: B. subtilis spores; type: binding, Bacillus subtilis
[4] = system: B. pumilus spores; type: binding

Fuc α1-3 GlcNAc β-PAA-flu was tested, and the “binding match between spores and immobilized glycoconjugate” value [1] was “bound”.
In the case of Fuc α 1-4 GlcNAc β-PAA-flu, the “binding match between spores and immobilized glycoconjugate” value [1] is reported as “bound”.
Gal α 1-3 GalNAc α-PAA-flu was tested, and the “binding match between spores and immobilized glycoconjugate” value [2] was “bound”.
With Gal β1-3 Gal β-PAA-flu the “binding match between spores and immobilized glycoconjugate” value [3] was “bound”.
In the case of Gal β1-3 GalNAc β-PAA-flu, the “binding match between spores and immobilized glycoconjugate” value [4] is reported as “bound”.
With Gal β1-3GalNAc α-PAA-flu the “binding match between spores and immobilized glycoconjugate” value [4] was “bound”.
Gal β 1-4 Glc β-PAA-flu was tested, and the “binding match between spores and immobilized glycoconjugate” value [2] was “bound”.
For GlcNAc β 1-4 GlcNAc β-PAA-flu, the “binding match between spores and immobilized glycoconjugate” value [3] was “bound”.
